# How the values were obtained:
# [1] = system: immortalized human HaCaT keratinocytes; test: Cell proliferation assay (MTT); type: cell-based; conditions: 72 h, serum-free DMEM, whole range 1–50 μg/mL, vs. control without peptide, triplicate
# Method: In our study two kind of cells were used: immortalized human HaCaT keratinocytes (DKFZ Heidelberg, Germany) and primary dermal fibroblasts obtained from 3 healthy donors. Both types of the used cell lines were grown in Dulbecco's modified Eagle's medium (DMEM) (Sigma–Aldrich, Germany), that contained […] of glucose, […] of L-glutamine, sodium pyruvate and sodium bicarbonate. Additionally, medium was supplemented with 10% of FCS (fetal calf serum, Sigma-Aldrich, Germany), 100 U/mL of penicillin and 100 μg/mL streptomycin (Sigma-Aldrich, Germany). The cells were grown in culture dishes (BD, USA) under standard conditions in a humidified atmosphere with 5% CO2 at 37°C and medium was changed every 2 days.
# The fibroblasts and keratinocytes were seeded at density of 4500 and 6000 cells per well, respectively, into 96-well plates suspended in a medium supplemented with 10% of FCS. After 24 h the media were exchanged with serum- and antibiotic- free DMEM and tested peptides dissolved in PBS were added yielding final concentration ranging from 1 to 50 μg/mL. Cells were incubated for the next 24 hours, when the medium was exchanged again and fresh portion of peptides (used at the same concentrations as previously) was added. Incubation was continued for the next 48 hours (the overall time of cell exposition to peptide was 72 h). At the end of the experiment cells were treated with 20 μL of MTT (5 mg/mL in PBS). After 3 h at 37°C under 5% CO2 medium was discarded and replaced by 6mM HCl in isopropanol. After 15 min when the purple crystals of formazan were fully solubilized, absorbance was read at 570 nm with a plate reader. The optical density reflects the level of cell viability as MTT is converted in purple formazan product only in the presence of viable mitochondria of the living cells.
# Fig 1 Pro-proliferative activity of the tested peptides towards human keratinocytes (A) and fibroblasts (B). Cells were incubated for 72 hours in serum-free DMEM medium in the presence of peptides applied at concentrations of 1,10, 25 and 50 μg/mL, respectively. The data represents results of MTT assay expressed as the percentage of the cell viability in comparison to their control sample (cells incubated in serum-free DMEM without tested peptides), additional positive control corresponds to the cells incubated in the presence of 10% FCS. All experiments were performed independently in triplicate. *P < 0.05, **P < 0.01, ***P < 0.001 vs. control.
# In order to evaluate a long-term effect of peptides, experiments were carried out for 72 hours. Before addition of the tested compounds, the cell medium was exchanged for the fresh one not containing any serum or antibiotic.
# [2] = system: HaCaT keratinocytes; test: Cell migration assay (in vitro scratch test); type: cell-based, human; conditions: 25 μg/mL, 24 h, serum-free DMEM, Mitomycin C 5 μg/mL, vs. control without peptide, three independent experiments
# Method: Fibroblasts and keratinocytes were seeded (5x10^5 cells/well) in 6-well plates. When desired monolayer confluence was reached, cells were starved for 24 hours in serum-free DMEM. The monolayer was scratched then with 200μL-pipette tip. The floating cells and cell debris were removed by double washing in PBS, further replaced with a fresh serum-free medium. Wounded monolayers were incubated for the next 24 h in the presence of tested peptides used at concentration of 25 μg/mL and 5 μg/mL of Mitomycin C (Sigma Aldrich) to prevent proliferation. At the end of the experiment medium was removed and the cells were fixed with 3.7% PFA for 5 min, stained for the next 30 min with 0.05% crystal violet solution, washed several times with distilled water and the plates were left inverted for a couple of minutes to drain. The wounded areas were then photographed by means of Zeiss Observer D1 microscope equipped with camera AxioCam and analyzed with AxioVision software (Carl Zeiss, Germany). Migration activity of the cells treated with the tested peptides were expressed as the percentage of the wounded area with respect to the control probe (cell cultures without any of the peptide), assumed as 100%.
# An in vitro scratch test was performed to investigate the effect of the analyzed compounds on keratinocytes and fibroblasts migration. Evaluation was based on the efficiency of the invasion of the monolayer cells to the prewounded area within 24 h after stimulation with the appropriate compound added at concetration of 25μg/mL.
# Fig 2 Effect of the peptides on HaCaT keratinocytes and fibroblasts cell migration in the in vitro scratch test. HaCaT cells and fibroblasts were grown in 6-well plates until the 100% confluence was reached, then cells were starved for the next 12 hours in DMEM without 10% FCS and scratched once vertically with a 200μL pipette tip. After being washed two times with sterile PBS, a fresh portion of DMEM medium was added and cells were treated with the tested peptides applied at their optimal doses (25 μg/mL). Migration was analyzed after 24 hours by means of Zeiss Observer D1 microscope, wounding areas were analyzed with AxioVision software and expressed as the percentage of the wound width in comparison to the control sample (cells incubated in DMEM without FCS). Control+ FCS corresponds to the sample with cells incubated in the medium containing 10% FCS and was treated as the additional positive control. Data represent the mean ± SD of three independent experiments. *P < 0.05, **P < 0.01, ***P < 0.001 vs. control.
substance,measurement,setting,value
carnosine [reference compound],"Effect on HaCaT cell viability/proliferation (MTT), in words",[1],non-toxic
same,"Effect on keratinocyte migration (scratch test), in words",[2],best results

# Source: publication PMC4608580, “Synthesis and Evaluation of Biological Activity of Antimicrobial – Pro-Proliferative Peptide Conjugates” (PLoS ONE, 2015)
